Consider two compounds from US20060142194A1, “Methods and compounds for treating brain amyloidosis” (Evotec NeuroSciences GmbH, priority 2000, published 2006).

Entries after “also recorded” stand apart in the source; their conditions may differ.

The target in one test is T1, NL-1 (neprilysin like 1) (Mus musculus, UniProt Q9JLI3).
T1 sequence (Q9JLI3 63-765): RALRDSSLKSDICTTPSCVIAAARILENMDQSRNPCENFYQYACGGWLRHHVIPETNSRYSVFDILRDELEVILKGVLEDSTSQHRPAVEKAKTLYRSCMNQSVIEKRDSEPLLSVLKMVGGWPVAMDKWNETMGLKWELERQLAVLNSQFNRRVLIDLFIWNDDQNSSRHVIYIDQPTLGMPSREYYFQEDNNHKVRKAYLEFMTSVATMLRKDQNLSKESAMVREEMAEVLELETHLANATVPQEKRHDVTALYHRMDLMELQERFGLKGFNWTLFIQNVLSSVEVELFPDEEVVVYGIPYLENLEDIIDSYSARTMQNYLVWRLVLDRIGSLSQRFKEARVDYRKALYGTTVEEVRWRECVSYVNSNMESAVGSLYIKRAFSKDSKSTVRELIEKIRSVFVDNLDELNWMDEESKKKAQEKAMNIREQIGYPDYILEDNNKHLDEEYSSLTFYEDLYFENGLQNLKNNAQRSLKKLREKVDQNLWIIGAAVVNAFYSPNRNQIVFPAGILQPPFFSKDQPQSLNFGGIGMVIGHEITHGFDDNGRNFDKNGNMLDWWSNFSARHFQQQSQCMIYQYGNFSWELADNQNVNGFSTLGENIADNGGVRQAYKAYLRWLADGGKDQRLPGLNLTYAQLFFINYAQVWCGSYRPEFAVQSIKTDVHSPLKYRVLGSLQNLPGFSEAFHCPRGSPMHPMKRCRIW
To be noted: cited from earlier work.

Another test deals with human Aβ. The test can be described thus: Aβ sandwich ELISA on formic acid extracted brain tissue. Type of test: in vivo. To be noted: SwAPP mice, 20 weeks after injection, n=4; vs untreated SwAPP littermates; p≦0.05. The protocol: (§1) Preparation of tissue: For combined Western blot analyses and immunohistochemistry, mice were deeply anesthetized and were perfused transcardially using ice-cold PBS (pH 7.4). Frontal cortices of both hemispheres were homogenized in lysis buffer containing 1% Triton X-100, 10 mM Tris, 250 mM sucrose, and 1× complete proteinase inhibitor cocktail, pH=8 (Roche, Switzerland). The remaining brain tissue was fixed over night in 4% paraformaldehyde solution at 4° C. and washed several times in PBS and embedded in paraffin for immuno-histochemistry. For combined immunocytochemistry and Aβ-ELISA, mice were perfused with 4% paraformaldehyde and postfixed in the same solution over night. […]
Aβ-ELISA: For quantitation of Aβ content in mouse brain, protein extracts of fixed brain tissue reaching from the stereotaxic coordinates intraaural 1 to intraaural −2 were prepared. […] 150 μl diluted samples or standards (Aβ40 Bachem) were incubated overnight, washed, and detected with biotinylated monoclonal mouse antibody 6H1 directed against amino acids 1-17 of human Aβ (Evotec Neurosciences GmbH) incubated at a concentration of 1 μg/ml in blocking buffer for 2 hours at 37° C., and visualised with a peroxidase reaction using tetramethylbenzidine as substrate, and detection at 450 nm. […]
In general terms: An ELISA detects its analyte on a solid surface through an enzyme-linked reagent.

Test [1] has as its system transgenic SwAPP mice. The test is described as follows: Brain amyloid plaque staining and counts (thioflavin S, 4G8) in SwAPP mice. It is filed as in vivo. As to the method:
Animals: Transgenic mice expressing the AD-causing Swedish double mutant of the human APP gene were generated and bred as described previously (Hsiao K. K. et al., Neuron 15, 1203-1218, 1995; Hsiao K. et al., Science 274, 99-102, 1996). All mice used in this study were the progeny of a single SwAPP male, crossbred to wild-type littermates. The colony was housed under a light cycle of 12 hours with dry food and water ad libitum. The presence of the transgene was determined by PCR on genomic DNA isolated from tail biopsies using specific primers GTGGATAACCCCTCCCCCAGCCTAGACCA and CTGACCACTCGACCAGGTTCTGGGT to the transgene. […] After the injection, the needle was left in place for 1 more minute, and then was slowly withdrawn over a period of 1 minute. […]
(§2) To be sure that no amyloid plaques were missed in the mice, every 50th coronal section (250 μm apart) of all mice was stained, beginning with a random section of the olfactory bulbs. […] Existing plaques in 3 representative sections of each mouse were counted. […] To determine whether the reduced amyloid pathology was associated with reduced concentrations of transgenic Aβ, human Aβ was measured by a sandwich ELISA that specifically recognized intact human Aβ (Nitsch, R. M. et al., Ann. Neurol. in Press). As expected, no human Aβ was detected by ELISA in wild-type mice.

In another test the test system is PDAPP transgenic mouse. As to conditions: cited from earlier work.
Test [2] relates to NEP. The test is described as follows: Western blot and densitometry of NEP in brain extracts after Aβ42 injection. As to conditions: as early as one week after Aβ42 injection; SwAPP and wild-type mice; vs uninjected or PBS-injected. It is filed as in vivo. In general terms: A western blot detects proteins with antibodies after separation by electrophoresis.
Description: Actin was used to control for equal loading (a). […] The intensity of each NEP and actin bands was measured using the NIH-Image software. […] Data represent means of each group+SEM * p≦0.05, ** p≦0.01, Mann-Whitney U test. n=3 for each group.
All mice used in this study were the progeny of a single SwAPP male, crossbred to wild-type littermates. The colony was housed under a light cycle of 12 hours with dry food and water ad libitum. […] After the injection, the needle was left in place for 1 more minute, and then was slowly withdrawn over a period of 1 minute.
Western-blot analysis: Protein concentration of brain extracts were determined with the Bredford protein assay and equal amounts of protein (60 μg) were loaded to each lane of 8% acrylamid gels in Laemmli buffer. After electrophoresis proteins were blotted on nitrocellulose membranes (Amersham). Membranes were probed for NEP using the monoclonal antibody 56C6 at a dilution of 1:50. […]
The next test has as its system APP. The test is described as follows: APP levels by Western blots of protein extracts. As to conditions: Aβ42- or vehicle treated, or untreated transgenic mice. Type of test: in vivo. The protocol:
Western-blot analysis: Protein concentration of brain extracts were determined with the Bredford protein assay and equal amounts of protein (60 μg) were loaded to each lane of 8% acrylamid gels in Laemmli buffer. After electrophoresis proteins were blotted on nitrocellulose membranes (Amersham). Membranes were probed for NEP using the monoclonal antibody 56C6 at a dilution of 1:50. Blots were stripped in a buffer containing 2% SDS, 62.5 mM Tris (pH 6.8) and 100 mM β-mercaptoethanol at 50° C. for 30 minutes. After stripping the membrane were probed sequentially with anti-Alzheimer precursor protein A4 antibody (clone 22C11, 1:1000), IDE-1 (1:800), ACE (1:200), and the polyclonal antibody to 24.15 protein (1:600). Finally, staining for actin (1:1000) was performed as a loading control. […]
as §2

The subject of test [3] is NEP. The test is described as follows: NEP immunohistochemistry of brain sections after intracranial Aβ42 injection. Type of test: in vivo. To be noted: single intracranial injection of 1 μl aggregated Aβ42 (350 μM); SwAPP and wild-type mice; 11 and 20 weeks after injection; vs PBS. As to the method: Animals: Transgenic mice expressing the AD-causing Swedish double mutant of the human APP gene were generated and bred as described previously (Hsiao K. K. et al., Neuron 15, 1203-1218, 1995; Hsiao K. et al., Science 274, 99-102, 1996). All mice used in this study were the progeny of a single SwAPP male, crossbred to wild-type littermates. The colony was housed under a light cycle of 12 hours with dry food and water ad libitum. The presence of the transgene was determined by PCR on genomic DNA isolated from tail biopsies using specific primers GTGGATAACCCCTCCCCCAGCCTAGACCA and CTGACCACTCGACCAGGTTCTGGGT to the transgene. […] After the injection, the needle was left in place for 1 more minute, and then was slowly withdrawn over a period of 1 minute.
Preparation of tissue: For combined Western blot analyses and immunohistochemistry, mice were deeply anesthetized and were perfused transcardially using ice-cold PBS (pH 7.4). […]
In contrast, in SwAPP mice as well as in wild-type littermates injected with PBS vehicle alone, neuronal NEP staining was weak and diffuse (FIG. 2 a-c, g-i). […] To confirm this finding, we next analysed brain proteins prepared from Aβ42-injected mice extracts by Western blotting.

For test [4], the system named is angiotensin converting enzyme (ACE). The test is described as follows: ACE brain tissue levels. Type of test: in vivo. To be noted: treated vs untreated mice, any examined time point after Aβ42 injection. The protocol:
as §1
(§3) Western-blot analysis: Protein concentration of brain extracts were determined with the Bredford protein assay and equal amounts of protein (60 μg) were loaded to each lane of 8% acrylamid gels in Laemmli buffer. […]
(§4) Role of other Aβ degrading enzymes: To determine whether other Aβ-degrading proteases were involved in preventing amyloid formation in the above described mice, brain tissue levels of insulin-degrading enzyme (IDE), a 100 kD Zn-metallo-proteinase that is a major Aβ-degrading enzyme in tissue culture (Qiu W. Q. et al., J. Biol. Chem. 273, 32730-32738, 1998; Vekrellis K. et al., J. Neurosci., 20, 1657-1665, 2000) were analysed by immunohistochemistry and Western blotting. […]

In the next test the test system is metalloprotease 24.15. The test is described as follows: Metalloprotease 24.15 brain levels. As to conditions: in response to Aβ injections. Type of test: in vivo, mice. The protocol:
as §1, §3, §4

The test system of test [5] is transgenic SwAPP mice. The test can be described thus: GFAP staining of reactive astrocytes (astrogliosis). It is filed as in vivo. The protocol:
Preparation of tissue: For combined Western blot analyses and immunohistochemistry, mice were deeply anesthetized and were perfused transcardially using ice-cold PBS (pH 7.4). Frontal cortices of both hemispheres were homogenized in lysis buffer containing 1% Triton X-100, 10 mM Tris, 250 mM sucrose, and 1× complete proteinase inhibitor cocktail, pH=8 (Roche, Switzerland). The remaining brain tissue was fixed over night in 4% paraformaldehyde solution at 4° C. and washed several times in PBS and embedded in paraffin for immuno-histochemistry. For combined immunocytochemistry and Aβ-ELISA, mice were perfused with 4% paraformaldehyde and postfixed in the same solution over night. The caudal parts of the brains reaching from intraaural 1 to intraaural −2 (Franklin, K. B. J, Paxinos, G. Academic Press, 1997) were dissected and prepared for Aβ ELISA. The remaining brain tissue was embedded in paraffin and then processed for immunohistochemistry. Five μm thick paraffin sections were probed with antibodies against NEP, IDE (Insulin degrading enzyme), ACE (Angiotensin converting enzyme), endopeptidase 24.15 protein, and GFAP (glial fibrillary protein) according to providers' protocols and counterstained with nuclear fast red (Fluka, Switzerland).
Prevention of amyloid formation was accompanied by reduced reactive astrocytosis: Because brain amyloidosis in SwAPP mice is accompanied by reactive astrocytosis, GFAP-reactive astrocytes were analysed in response to the Aβ42-injection protocol (FIG. 6 a-c). […] Similar activation of astrocytes in brain regions unaffected by amyloid plaque formation is a well established finding in transgenic mice that overexpress disease-causing APP mutants (Schenk D. et al., Nature 400, 173-177, 1999). It may be explained by high sensitivity of hippocampal astrocytes to unknown toxic activities related to the expression of the SwAPP transgene; these may well be independent of amyloid plaque formation.

Test [6] has as its system insulin-degrading enzyme (IDE). The test is described as follows: IDE brain tissue levels by immunohistochemistry and Western blotting. Type of test: in vivo, mice. To be noted: in response to Aβ42 injections. The protocol: as §1, §3, §4

Take `CC(C)C[C@H](NP(=O)(O)O[C@@H]1O[C@@H](C)[C@H](O)[C@@H](O)[C@H]1O)C(=O)N[C@@H](Cc1c[nH]c2ccccc12)C(=O)O` [phosphoramidon]: the “inhibition of NL-1” value at NL-1 (neprilysin like 1) is reported as “efficiently inhibited”.
As to “Aβ42: Fibrillar aggregated synthetic Aβ42 prepared by resuspending lyophilized Aβ42 (Bachem) in PBS, pH 7.4 by shaking for 48 hours at 37° C.”, the “brain Aβ levels (ELISA, formic acid extracted total Aβ)” value in the test with human Aβ is reported as “significantly reduced; also recorded: untreated control SwAPP mice (n=4) were significantly higher than in Aβ42-treated SwAPP mice”. In addition, in the test on transgenic SwAPP mice [1] (SwAPP mice at 31 weeks of age, 20 weeks after single injection (4/4), vs untreated SwAPP mice), the “thioflavin S- or 4G8-positive amyloid plaques” value is on record as “significant reduction; also recorded: completely free”. In addition, in the test with transgenic SwAPP mice [1] (SwAPP mice, 20 weeks after injection, vs untreated littermates, p≦0.05), the “plaque counts of 4G8 stained amyloid plaques” value is “significantly reduced; also recorded: marked significant decrease”. In addition, in the test with PDAPP transgenic mouse (immunisation of young animals (6 weeks of age)), the “β-amyloid-plaque formation, neuritic dystrophy and astrogliosis” value is given as “essentially prevented”. The “extent and progression of AD-like neuropathologies” value in the test with PDAPP transgenic mouse (treatment of older animals (11 months)) is reported as “markedly reduced”. In addition, in the test on NEP [2], the “NEP protein levels in brain extracts (Western blot)” value is reported as “significant increase; also recorded: significantly higher”. Further, the APP levels result in the test with APP is listed as “no difference”. For the same compound, the “neuronal NEP immunoreactivity” value with NEP [3] is recorded as “increased”. In addition, the ACE levels entry in test [4] is listed as “did not differ”. Besides, the “metalloprotease 24.15 levels” value in the test with metalloprotease 24.15 is “unchanged”. Further, the “GFAP-positive astrocytes in hippocampi” value in the test on transgenic SwAPP mice [5] (Aβ42-treated SwAPP mice) is listed as “abundant”. For the same compound, in the test with transgenic SwAPP mice [5] (SwAPP mice after Aβ42 injections), the “amyloid plaque-associated clusters of GFAP-positive cells” value was “completely absent”. In addition, the “GFAP staining of reactive astrocytes in cerebral cortices” value with transgenic SwAPP mice [5] (SwAPP mice, 20 weeks after injection, vs untreated SwAPP littermates) is given as “significantly lower”. Also, the “tissue levels of IDE” value in test [6] is recorded as “no differences”.
